Source: patent US6168809A, “Alkaline-earth metal salt for the treatment of ocular or palpebral pruritus and dysesthesia” (Societe l'Oreal S.A., priority 1995, dated 2001)

What was measured:
[1] = test system: TNF-alpha secretion by human monocytes (line U937); test: inhibition of secretion of TNF-alpha induced by PMA in human monocytes (line U937); format: cell-based; conditions: for inhibition of TNF-alpha: in words; for % inhibition of secretion of TNF-alpha induced by PMA: PMA 10 nM, 48 hours, 37° C., mean of 3 measurements
Experimental: This test is performed on human monocytes (line U937) stimulated by a phorbol ester (PMA) according to the method described by Schindler et al. (Correlations and interactions in the production of interleukin-6 (IL-6), IL-1, and Tumor Necrosis Factor (TNF) in human blood mononuclear cells: IL-6 suppresses IL-1 and TNF. Blood 75: 40-47 (1990)).
The phorbol ester (PMA) naturally stimulates the synthesis and/or the secretion of TNF-alpha by human monocytes in culture.
The activity of the molecules is evaluated according to their capacity to reduce or even suppress this TNF-alpha secretion.
The cells (monocytes) are incubated in the presence of PMA at the concentration of 10 nM for 48 hours at 37° C. The quantities of TNF-alpha secreted are quantified by immunoenzymatic assay (ECA) with the aid of commercially available kits.
Each molecule is tested at 3 different concentrations (10^-5, 10^-4 and 10^-3 M) and in each experiment, a reference molecule (dexamethasone) is studied at 7 concentrations as internal standard.
The results are expressed as percentage of inhibition relative to the positive control (without test molecule) after subtracting the background noise. A recapitulative table groups together the mean inhibitory effects obtained with the compounds. (The results are expressed as % inhibition; they are the mean of 3 measurements).

release of substance P = release of substance P caused by antidromic stimulation of the sciatic nerve, visualized by Evans blue staining; format: in vivo
Text: The test consisted in determining the activity of various compounds on the release of substance P, which is caused by antidromic stimulation of the sciatic nerve. This release is visualized by staining with a stain (Evans blue). The greater the quantity of substance P released, the more intense the colour. In other words, the greater the inhibitory effect of the substance P antagonist on this release, the less intense the colour.

[Cl-].[Cl-].[Sr+2] [SrCl2, strontium chloride]
inhibition of TNF-alpha [1]: inhibitors of TNF-alpha

O=[N+]([O-])[O-].O=[N+]([O-])[O-].[Ca+2] [Ca(NO3)2, calcium nitrate]
inhibitory activity on the release of substance P (release of substance P; Table 1, in words, salts at the same concentration): no activity at all
inhibitory activity on the release of substance P (release of substance P; Table 2, in words, calcium salt at a higher concentration level): no activity at all

O.O.O.O.O.O.O.[Cl-].[Cl-].[Sr+2] [SrCl2 7H2O]
% inhibition of secretion of TNF-alpha induced by PMA ([1]; 10^-3 M): 54%
% inhibition of secretion of TNF-alpha induced by PMA ([1]; 10^-5 M): 14%

[Cl-].[Cl-].[Mg+2] [Mg Cl2, magnesium chloride]
% inhibition of secretion of TNF-alpha induced by PMA ([1]; 10^-3 M): 70%
% inhibition of secretion of TNF-alpha induced by PMA ([1]; 10^-4 M): 12%
inhibition of TNF-alpha [1]: inhibitors of TNF-alpha

[Ca+2].[Cl-].[Cl-] [CaCL2.7H2 O, calcium chloride]
% inhibition of secretion of TNF-alpha induced by PMA ([1]; 10^-3 M): 67%
% inhibition of secretion of TNF-alpha induced by PMA ([1]; 10^-4 M): 22%
% inhibition of secretion of TNF-alpha induced by PMA ([1]; 10^-5 M): 19%
inhibition of TNF-alpha [1]: inhibitors of TNF-alpha

O=[N+]([O-])[O-].O=[N+]([O-])[O-].[Sr+2] [Sr(NO3)2, strontium nitrate]
% inhibition relative to the control (release of substance P; Table 2, 3 μmol): 71%
% inhibition of secretion of TNF-alpha induced by PMA ([1]; 10^-3 M): 75%
% inhibition of secretion of TNF-alpha induced by PMA ([1]; 10^-4 M): 28%
inhibition of TNF-alpha [1]: inhibitors of TNF-alpha
